Assay results: US20090143279A1 (priority 2007, published 2009)
Where two headings read alike, the source gives them in different places.

Legend:
[1] = test system: mitochondrial membrane potential; assay type: cell-based, mouse; conditions: for ΔΨm (composite Z-score): normalized score vs mock-treated (DMSO) wells
[2] = test system: cellular dehydrogenase activity; conditions: for MTT (composite Z-score): normalized score vs mock-treated (DMSO) wells
[3] = test system: nuOXPHOS transcripts; assay type: cell-based, mouse; conditions: for nucOX (composite Z-score): normalized score vs mock-treated (DMSO) wells
[4] = test system: OXPHOS gene expression; assay type: cell-based, mouse; conditions: for GE-HTS (composite Z-score): normalized score vs mock-treated (DMSO) wells
[5] = test system: mtOXPHOS transcripts; assay type: cell-based, mouse; conditions: for mitoOX (composite Z-score): normalized score vs mock-treated (DMSO) wells
[6] = test system: reactive oxygen species; assay type: cell-based, mouse; conditions: for ROS (composite Z-score): normalized score vs mock-treated (DMSO) wells
[7] = test system: C2C12 myotubes; conditions: for Viability (composite Z-score): normalized score vs mock-treated (DMSO) wells
[8] = test system: cytochrome c; assay type: cell-based, mouse; conditions: for cyt c (composite Z-score): normalized score vs mock-treated (DMSO) wells
[9] = 20 μM, composite Z-score vs DMSO
[10] = composite Z-score vs DMSO, Conc 10.62 μM
[11] = normalized composite Z-score vs mock-treated (DMSO) wells, Conc 20 μM
[12] = composite Z-score vs DMSO, Conc 20 μM
[13] = composite Z-score vs DMSO, Conc 8 μM
[14] = composite Z-score vs DMSO wells, Conc 20 μM
[15] = composite Z-score vs mock-treated (DMSO) wells, Conc 20 μM

Sequence of cytochrome c (P62897 whole entry): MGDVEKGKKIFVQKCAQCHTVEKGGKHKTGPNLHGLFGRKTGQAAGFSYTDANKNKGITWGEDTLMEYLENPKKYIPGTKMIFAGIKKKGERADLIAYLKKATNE

COc1ccc([C@@H]2CC(=O)c3c(O)cc(O[C@@H]4O[C@H](CO[C@@H]5O[C@@H](C)[C@H](O)[C@@H](O)[C@H]5O)[C@@H](O)[C@H](O)[C@H]4O)cc3O2)cc1O [hesperidin]
ΔΨm [1, 9]: −0.251
MTT [2, 9]: −0.992
nucOX [3, 9]: −0.106
GE-HTS [4, 9]: −0.618
mitoOX [5, 9]: −1.561
ROS [6, 9]: −0.281
Viability [7, 9]: 0.694
cyt c [8, 9]: 0.621

CC(=O)[C@@]1(O)CC[C@H]2[C@@H]3C[C@H](C)C4=CC(=O)C=C[C@]4(C)[C@@]3(F)[C@@H](O)C[C@@]21C [fluorometholone]
ΔΨm [1, 10]: −0.299
MTT [2, 10]: −1.306
nucOX [3, 10]: 0.038
GE-HTS [4, 10]: 0.446
mitoOX [5, 10]: 1.187
ROS [6, 10]: 2.141
Viability [7, 10]: −0.965
cyt c [8, 10]: −0.324

CC(C)C1COc2cc3oc(=O)ccc3cc2O1 (stereo not drawn) [dihydro-obliquin]
ΔΨm [1, 11]: −0.159
MTT [2, 11]: −0.661
nucOX [3, 11]: 0.192
GE-HTS [4, 11]: 0.233
mitoOX [5, 11]: 0.303
ROS [6, 11]: 1.045
Viability [7, 11]: −0.141
cyt c [8, 11]: −0.662

beta-sitosterol
ΔΨm [1, 12]: −0.679
MTT [2, 12]: −1.974
nucOX [3, 12]: 0.046
GE-HTS [4, 12]: 0.098
mitoOX [5, 12]: 0.218
ROS [6, 12]: 0.049
Viability [7, 12]: −0.768
cyt c [8, 12]: 0.061

O=C(O)c1cc(O)c2c(c1)[C@H]([C@H]1c3cc(C(=O)O)cc(O)c3C(=O)c3c(O[C@@H]4O[C@H](CO)[C@@H](O)[C@H](O)[C@H]4O)cccc31)c1cccc(O[C@@H]3O[C@H](CO)[C@@H](O)[C@H](O)[C@H]3O)c1C2=O [sennoside A]
ΔΨm [1, 12]: −0.640
MTT [2, 12]: −0.769
nucOX [3, 12]: −1.093
GE-HTS [4, 12]: −1.374
mitoOX [5, 12]: −1.628
ROS [6, 12]: 0.137
Viability [7, 12]: 0.602
cyt c [8, 12]: 0.362

CCCCN(CCCC)CCC(O)c1cc2c(Cl)cc(Cl)cc2c2cc(C(F)(F)F)ccc12 (stereo not drawn) [halofantrine]
ΔΨm [1, 13]: −0.668
MTT [2, 13]: −0.174
nucOX [3, 13]: −0.239
GE-HTS [4, 13]: −0.508
mitoOX [5, 13]: −0.969
ROS [6, 13]: 0.012
Viability [7, 13]: 0.132
cyt c [8, 13]: −0.236

CCCc1occc(=O)c1CCO [2-propyl-3-hydroxyethylenepyran-4-one]
ΔΨm (composite Z-score) ([1]; Conc 20 μM): −0.741
MTT (composite Z-score) ([2]; Conc 20 μM): −0.906
nucOX (composite Z-score) ([3]; Conc 20 μM): 0.870
GE-HTS (composite Z-score) ([4]; Conc 20 μM): 0.682
mitoOX (composite Z-score) ([5]; Conc 20 μM): 0.202
ROS (composite Z-score) ([6]; Conc 20 μM): 0.195
Viability (composite Z-score) ([7]; Conc 20 μM): 0.162
cyt c (composite Z-score) ([8]; Conc 20 μM): −0.100

N[C@@H](Cc1ccc(N(CCCl)CCCl)cc1)C(=O)O [melphalan]
ΔΨm [1, 14]: 0.151
MTT [2, 14]: −1.387
nucOX [3, 14]: 1.282
GE-HTS [4, 14]: 1.449
mitoOX [5, 14]: 1.453
ROS [6, 14]: −0.265
Viability [7, 14]: −0.360
cyt c [8, 14]: −0.954

COc1cc(-c2coc3cc(O[C@@H]4O[C@H](CO)[C@@H](O)[C@H](O)[C@H]4O)c(OC)c(O)c3c2=O)cc(O)c1OC [iridin]
ΔΨm [1, 15]: 0.076
MTT [2, 15]: −1.958
nucOX [3, 15]: −0.602
GE-HTS [4, 15]: −0.755
mitoOX [5, 15]: −0.990
ROS [6, 15]: 0.927
Viability [7, 15]: −0.441
cyt c [8, 15]: −0.474

CC[C@H](CC[C@@H](C)[C@H]1CC[C@H]2[C@@H]3CC=C4C[C@@H](OC(C)=O)CC[C@]4(C)[C@H]3CC[C@]12C)C(C)C [sitosteryl acetate]
ΔΨm [1, 11]: −0.192
MTT [2, 11]: −0.775
nucOX [3, 11]: −0.389
GE-HTS [4, 11]: −0.233
mitoOX [5, 11]: 0.180
ROS [6, 11]: 0.930
Viability [7, 11]: −0.827
cyt c [8, 11]: −0.443

CC(C)c1ccc2c(c1)CCC1[C@](C)(CN)CCC[C@]21C.O=S(=O)(O)O (stereo partly drawn) [18-aminoabieta-8,11,13-triene sulfate]
ΔΨm (composite Z-score) ([1]; Conc 20 μM): −0.519
MTT (composite Z-score) ([2]; Conc 20 μM): −0.762
nucOX (composite Z-score) ([3]; Conc 20 μM): −0.771
GE-HTS (composite Z-score) ([4]; Conc 20 μM): −0.727
mitoOX (composite Z-score) ([5]; Conc 20 μM): −0.462
ROS (composite Z-score) ([6]; Conc 20 μM): 2.176
Viability (composite Z-score) ([7]; Conc 20 μM): −0.143
cyt c (composite Z-score) ([8]; Conc 20 μM): 0.507

O=C(O)c1cc(O)c2c(c1)C(=O)c1cc(O)cc(O)c1C2=O [emodic acid]
ΔΨm (composite Z-score) ([1]; Conc 20 μM): −0.966
MTT (composite Z-score) ([2]; Conc 20 μM): −0.976
nucOX (composite Z-score) ([3]; Conc 20 μM): −1.210
GE-HTS (composite Z-score) ([4]; Conc 20 μM): −1.336
mitoOX (composite Z-score) ([5]; Conc 20 μM): −1.286
ROS (composite Z-score) ([6]; Conc 20 μM): 1.403
Viability (composite Z-score) ([7]; Conc 20 μM): 0.262
cyt c (composite Z-score) ([8]; Conc 20 μM): 0.505

COc1c(CC(=O)c2cc3c(cc2O)OC(C)(C)C(O)C3)ccc2c1C=CC(C)(C)O2 (stereo not drawn) [dihydromunduletone]
ΔΨm [1, 11]: 2.250
MTT [2, 11]: −0.805
nucOX [3, 11]: −1.276
GE-HTS [4, 11]: −1.331
mitoOX [5, 11]: −1.248
ROS [6, 11]: −0.049
Viability [7, 11]: 1.580
cyt c [8, 11]: −0.146

Cc1cc(=O)c2c(O)c3c(cc2o1)OC(C)(C)CC3 [dihydrospatheliachromene]
ΔΨm [1, 15]: −0.174
MTT [2, 15]: −1.802
nucOX [3, 15]: −0.620
GE-HTS [4, 15]: −0.666
mitoOX [5, 15]: −0.569
ROS [6, 15]: 1.483
Viability [7, 15]: −0.538
cyt c [8, 15]: 0.068

CC1(C)C2C[C@@H](O)[C@]3(C)C(CC[C@@]4(C)[C@H](c5ccoc5)OC(=O)C5OC543)[C@@]2(C)C(=O)C[C@H]1O (stereo partly drawn) [1-deacetoxy-1-oxo-3,7-dideacetylkhivorin]
ΔΨm (composite Z-score) ([1]; Conc 20 μM): −0.321
MTT (composite Z-score) ([2]; Conc 20 μM): −1.776
nucOX (composite Z-score) ([3]; Conc 20 μM): −0.704
GE-HTS (composite Z-score) ([4]; Conc 20 μM): −0.525
mitoOX (composite Z-score) ([5]; Conc 20 μM): −0.020
ROS (composite Z-score) ([6]; Conc 20 μM): 0.626
Viability (composite Z-score) ([7]; Conc 20 μM): −0.413
cyt c (composite Z-score) ([8]; Conc 20 μM): −0.411

COc1ccc(-c2cc(=O)c3c(O)cc(O)c(-c4cc(-c5cc(=O)c6c(O)cc(O)cc6o5)ccc4OC)c3o2)cc1 [isoginkgetin]
ΔΨm [1, 11]: −4.387
MTT [2, 11]: −1.024
nucOX [3, 11]: −0.318
GE-HTS [4, 11]: −0.589
mitoOX [5, 11]: −1.087
ROS [6, 11]: 1.106
Viability [7, 11]: 2.182
cyt c [8, 11]: −0.400

C/C=C(/C)C(=O)O[C@H]1Cc2c(ccc3ccc(=O)oc23)OC1(C)C [selinidin]
ΔΨm (composite Z-score) ([1]; Conc 20 μM): 0.013
MTT (composite Z-score) ([2]; Conc 20 μM): −0.359
nucOX (composite Z-score) ([3]; Conc 20 μM): −0.328
GE-HTS (composite Z-score) ([4]; Conc 20 μM): −0.347
mitoOX (composite Z-score) ([5]; Conc 20 μM): −0.285
ROS (composite Z-score) ([6]; Conc 20 μM): 0.838
Viability (composite Z-score) ([7]; Conc 20 μM): 0.773
cyt c (composite Z-score) ([8]; Conc 20 μM): −0.478

COC1=C[C@@H](C)[C@@H]2C[C@H]3OC(=O)C[C@H]4C(C)=C(OC)C(=O)[C@H]([C@@]2(C)C1=O)[C@@]34C [quassin, reference compound]
ΔΨm [1, 9]: 0.033
MTT [2, 9]: −0.400
nucOX [3, 9]: 0.205
GE-HTS [4, 9]: 0.095
mitoOX [5, 9]: −0.168
ROS [6, 9]: 0.925
Viability [7, 9]: −0.688
cyt c [8, 9]: −0.233
